Reference: patent publication US20080051435A1, “Crystalline and amorphous forms of tiagabine” (Cephalon, Inc., priority 2006, published 2008)

What was measured:
[1] = Moisture sorption/desorption (VTI SGA-100 moisture balance); format: physicochemical
Method: Moisture sorption/desorption data were collected on a VTI SGA-100 moisture balance system. For sorption isotherms, a sorption range of 5 to 95% relative humidity (RH) and a desorption range of 95 to 5% RH in 10% RH increments were used for analysis. The samples were not dried prior to analysis. Equilibrium criteria used for analysis were less than 0.0100% weight change in 5 minutes with a maximum equilibration time of 3 hours if the weight criterion was not met. Data were not corrected for the initial moisture content of the samples.

[2] = Solid-form stability on storage at ambient temperature and humidity, XRPD analysis; format: physicochemical; conditions: for form conversion during storage: during storage (general description); for solid form by XRPD after storage: stored approximately two months, ambient temperature and humidity, hydrochloride
From the text: Tiagabine HCl Form K was stored for approximately two months under conditions of ambient temperature and humidity.

| Compound | solid form by XRPD after moisture sorption/desorption ([1]; XRPD analysis of the sample after moisture sorption/desorption) | weight loss from 95% to 5% RH ([1]; desorption 95% to 5% RH) [%] | weight loss upon equilibration at 5% relative humidity (RH) ([1]; equilibration at 5% RH, sample not dried prior to analysis) [%] | weight gain from 5% to 95% RH ([1]; sorption 5% to 95% RH) [%] | form conversion during storage ([2]; listed as Tiagabine hydrochloride Form L) | solid form by XRPD after storage [2] | form conversion during storage ([2]; listed as Tiagabine hydrochloride Form K) |
| --- | --- | --- | --- | --- | --- | --- | --- |
| Cc1ccsc1C(=CCCN1CCC[C@@H](C(=O)O)C1)c1sccc1C [Tiagabine free base Form A, (−)-(R)-1-(4,4-bis(3-methyl-2-thienyl)-3-butenyl)-3-piperidinecarboxylic acid] | tiagabine free base amorphous | 18.7 | 1.0 | 23.5 | – | – | – |
| Cc1ccsc1C(=CCCN1CCC[C@@H](C(=O)O)C1)c1sccc1C.Cl [Tiagabine HCl Form L, tiagabine hydrochloride] | – | – | – | – | converts to a mixture of tiagabine hydrochloride Forms B and Q | a mixture of tiagabine HCl Forms B and Q | – |
| Cc1ccsc1C(=CCCN1CCC[C@@H](C(=O)O)C1)c1sccc1C.Cl [Tiagabine HCl Form K, tiagabine hydrochloride] | – | – | – | – | – | a mixture of tiagabine HCl Forms Q and B | converts to a mixture of tiagabine hydrochloride Forms Q and B |
